# Test results: US20110230430A1, “SAPONIN EXTRACT FROM SAPONARIA SPP. AND USES THEREOF” (NATIONAL RESEARCH COUNCIL OF CANADA, priority 2008, published 2011)
# Legend:
# Type in all cases: cell-based, human
# PC-3 cells = experiment: APO LOGIX Carboxyfluorescein Caspase 9 Detection Kit in PC-3 cells
# Description: (§1) In a still further apoptotic assay, apoptosis can be measured by the APO LOGIX™ Carboxyfluorescein Caspase 9 Detection Kit. The APO LOGIX™ Carboxyfluorescein Caspase 9 Detection Kit uses a cell permeable carboxyfluorescein labeled caspase inhibitor, which binds covalently to active caspases 9. Caspase 9 is involved in initiating apoptosis through the mitochondrial pathway (Budihardjo I., et al. 1999). Cells that contain bound inhibitor are detected by an increase in fluorescence when samples are analyzed by flow cytometry.
# PC-3 cells (ATCC #CRL-1435) were derived from a prostate adenocarcinoma (Kaighn et al., 1979). They were maintained in RPMI 1640 medium (Gibco) supplemented with 10% fetal bovine serum (Cansera), 100 U/mL penicillin, and 100 μg/mL streptomycin and 0.25 μg/mL amphotericin B. Cultures were maintained in medium at 37° C. with 5% CO2 and 100% relative humidity.
# PC-3 cells were seeded in tissue culture flasks with regular growth medium and maintained under normal conditions. After cells had adhered, the tissue culture medium was replaced with medium containing PC1448 dissolved in DMSO with the final concentration of DMSO not exceeding 0.05%. For each assay, a flask of untreated cells was grown in media containing the same amount of DMSO as in the PC1448 treated samples. Following incubation under normal growth conditions for the specified time, cells were washed once with cold phosphate-buffered saline (PBS) (137 mM NaCl, 2.7 mM KCl, 4.3 mM Na2HPO4.7H2O, 1.4 mM KH2PO4) and harvested as previously described. Assays were carried out according to instructions given in kits. All Flow Cytometry was performed using a Coulter Epics XL (Beckman).
# [1] = test system: PC-3 (prostate cancer) cells; experiment: Hoechst 33342 staining of PC-3 cells; details: 7 μM PC1448, 24 hours
# Description: (§2) Apoptosis can also be measured by Hoechst 33342 Staining. Cells undergoing apoptosis show several characteristic morphological changes. These changes include cell shrinkage and rounding, and the formation of cytoplasmic blebs on the cell surface. Nuclear material condenses along the edge of the nucleus followed by complete condensation and nuclear fragmentation (Hacker, G., 2000). Apoptotic cells eventually break up into membrane bound vesicles, which are known as apoptotic bodies. Hoechst 33342 is a fluorescent DNA-binding dye that allows visualization of chromatin distribution within a cell. Apoptotic nuclei have highly condensed chromatin, often in crescent shapes around the periphery of the nucleus.
# (§3) A further indication of apoptotic activity, in addition to the assays described above, can be derived from observations of changes in cell architecture evident after induction of apoptosis. Hoechst 33342 is a fluorescent DNA-binding dye that allows visualization of chromatin distribution within a cell.
# (§4) Cells undergoing apoptosis show several characteristic morphological changes. These changes include cell shrinkage and rounding, and the formation of cytoplasmic blebs on the cell surface. Nuclear material condenses along the edge of the nucleus followed by complete condensation and nuclear fragmentation (Hacker, G., 2000). […]
# [2] = test system: MDA-MB-231 (breast cancer) cells; experiment: Hoechst 33342 staining of MDA-MB-231 cells; details: 7 μM PC1448, 24 hours
# Description: as §2, §3, §4
# WiDr colon cancer cells = experiment: Dual Sensor: MitoCasp Assay in WiDr colon cancer cells; details: 2.5 μM, 5.0 μM, 10 μM, and 15 μM, 24 hours
# Description: Techniques to assay enzymatic and signaling processes involved in apoptosis have been developed as standard protocols. One example of an early step in apoptosis, is the release of cytochrome C from mitochondria and the activation of caspase-3. Induction of the caspases (a series of cytosolic proteases) is one of the most consistently observed features of apoptosis. Caspases are a family of proteolytic enzymes that transmit the apoptotic signal using a proteolytic cascade. […] Caspases 3 and 7 are effector caspases, central to the caspase cascade pathways. In particular, caspase-3 plays a central role in the process. When caspases are activated, they cleave target proteins; one of the most important of these is poly-(ADP-ribose) polymerase (PARP), which is a protein located in the nucleus. […] Collapse of the mitochondrial membrane potential during apoptosis prevents the dye from accumulating in the mitochondria resulting in a decrease in fluorescent intensity that can be detected with flow cytometry. […] In this assay, caspase 3/7 activity is detected using a cell permeable carboxyfluorescein labeled caspase inhibitor, which binds covalently to active caspases 3 and 7. Cells that contain bound inhibitor are detected by an increase in fluorescence when samples are analyzed by flow cytometry. […]
# CRL-2522 cells = experiment: APO LOGIX Carboxyfluorescein Caspase 9 Detection Kit in CRL-2522 cells
# Description: as §1
# CRL-2522 cells, acquired from ATCC, (American Type Culture Collection) are normal fibroblast cells that originated from human foreskin. CRL-2522 cells were maintained in RPMI 1640 medium (Gibco) supplemented with 10% fetal bovine serum (Cansera), 100 U/mL penicillin, 100 μg/mL streptomycin and 0.25 μg/mL amphotericin B. Cultures were maintained in medium at 37° C. with 5% CO2 and 100% relative humidity.
# CRL-2522 cells were treated with PC1448 and assayed for apoptosis as described above for PC-3 cells.
# [3] = test system: CRL-2522 (normal fibroblast) cells; experiment: Hoechst 33342 staining of CRL-2522 cells; details: 7 μM PC1448, 24 hours
# Description: as §2, §3, §4
substance,measurement,setting,value
Segetoside H [PC1448],Caspase 9 positive cells,"PC-3 cells; 7 μM PC1448, 20 hr",47.7%
same,Caspase 9 positive cells,"PC-3 cells; 10 μM PC1448, 20 hr",73.9%
same,Caspase 9 positive cells,"PC-3 cells; 14 μM PC1448, 10 hr",37.3%
same,Caspase 9 positive cells,"PC-3 cells; 14 μM PC1448, 15 hr",44.2%
same,Caspase 9 positive cells,"PC-3 cells; 14 μM PC1448, 20 hr",48.0%
same,Increase in cells with caspase 9 activity vs untreated,"PC-3 cells; 14 μM PC1448, 20 hr (concentration range)",six fold
same,Caspase 9 positive cells,"PC-3 cells; 14 μM PC1448, 20 hr (concentration series)",75.3%
same,Increase in cells showing caspase 9 activity vs untreated,"PC-3 cells; 14 μM PC1448, 20 hr (time course)",six fold
same,Caspase 9 positive cells,"PC-3 cells; 14 μM PC1448, 40 hr",29.4%
same,Caspase 9 positive cells,"PC-3 cells; 17 μM PC1448, 20 hr",65.6%
same,"Nuclear morphology after Hoechst 33342 staining (in words, FIG. 4)",[1],nuclear changes characteristic of apoptotic cells
same,"Nuclear morphology after Hoechst 33342 staining (in words, FIG. 4)",[2],nuclear changes characteristic of apoptotic cells
same,"Induction of apoptosis (in words, FIG. 8)",WiDr colon cancer cells,induces apoptosis
same,Change in Caspase 9 positive cells (in words),"CRL-2522 cells; 14 μM PC1448, 10 to 48 hr",No increase in Caspase 9 positive cells
same,Caspase 9 positive cells,"CRL-2522 cells; 14 μM PC1448, 10 hr",15.9%
same,Caspase 9 positive cells,"CRL-2522 cells; 14 μM PC1448, 24 hr",10.6%
same,Caspase 9 positive cells,"CRL-2522 cells; 14 μM PC1448, 48 hr",9.5%
same,"Nuclear morphology after Hoechst 33342 staining (in words, FIG. 4)",[3],nuclear changes characteristic of apoptotic cells
